Where a name gives a salt, the structure may show the parent alone.
Experiments:
[1] = target: T1, EcoLRS (leucyl-tRNA synthetase from Escherichia coli) (Escherichia coli, UniProt P07813); assay: aaRS aminoacylation assay (ATP consumption), EcoLRS; format: biochemical; conditions: for % at single point concentration (inhibition ratio), EcoLRS: @50 μM compound
T1 construct: made in house; host or cells: Escherichia coli M15
Method: (§1) The compounds have been tested for antibacterial activity in vitro as aminoacyl-tRNA synthetases (aaRS) inhibitors following the following process.
(§2) Leucyl-, valyl- and isoleucyl-tRNA synthetases (LRS, VRS and IRS, respectively) from Escherichia coli (Eco) and Staphylococcus aureus (Sau).
(§3) Escherichia coli M15 cells transformed with plasmid pQE-60, or pQE-70, containing the open-reading frame sequence of one targeted aaRS were induced with 1 mM IPTG (Isopropyl β-D-1-thiogalactopyranoside) for 3 h at 37° C. Bacterial cells were harvested and lysed with 20 mM NaH2PO4 (pH 8.0), 200 mM NaCl, 10 mM imidazole and protease inhibitor cocktail (Roche). Pathogenic aaRS was purified by nickel affinity standard chromatography. Protein concentration was determined by spectrophotometry.
(§4) tRNA^Leu, tRNA^Val and tRNA^Ile from E. coli and S. aureus were transcribed in vitro for 4 h at 37° C. using T7 RNA polymerase. Transcription reaction contained 40 mM Tris-HCl (pH 8.0), 22 mM MgCl2, 1 mM spermidine, 5 mM DTT, 0.01% Triton X-100, 4 mM GTP, 4 mM ATP, 4 mM UTP, 4 mM CTP, 16 mM GMP, […] T7 RNA polymerase and 150 μg BstNI digested plasmid. Once finished, the reaction was applied on a 6% polyacrylamide-8 M urea denaturing gel to purify the transcribed tRNA and discard any impurities. Purified tRNA was quantified with Nanodrop 2000 (Thermo Scientific).
(§5) The aminoacylation reaction catalyzed by aminoacyl-tRNA synthetases (aaRS) takes place in two steps. In the first step, aaRS activates its cognate amino acid with ATP; and in the second step the activated amino acid is loaded to its corresponding tRNA. This reaction can be summarized as follows: ARS+aa+ATP=ARS-aa-AMP+PPi ARS-aa-AMP+tRNA=aa-tRNA+AMP+ARS [2] (ARS, Aminoacyl-tRNA synthetase; aa, amino acid; ARS-aa-AMP, enzyme-bound to aminoacyl-adenylate; aa-tRNA, aminoacyl-tRNA).
(§6) The activity of the pathogenic aaRSs was monitored by measuring the ATP consumption rate, since this consumption is directly proportional to the activity of the aaRS. If the tested compound, at a single point concentration of 50 μM, is inhibiting the aminoacylation reaction, there is a decrease in the ATP consumption, compared to the control reaction without compound, allowing the calculation of an inhibition ratio.
(§7) When the inhibition ratio for a given compound was above 80%, IC50 determination was performed with the same enzymatic assay (using the commercial kit Kinase RR from BioThema AB, Sweden) in the presence of serial dilutions of inhibitor. Known inhibitors of LRS, VRS or IRS were used as a positive control of the assay. The IC50 was calculated based on nonlinear regression analysis.

[2] = target: T2, EcoIRS (isoleucyl-tRNA synthetase from Escherichia coli) (Escherichia coli, UniProt P00956); assay: aaRS aminoacylation assay (ATP consumption), EcoIRS; format: biochemical; conditions: i.a. = inactive at a concentration below 50 uM
T2 construct: made in house; host or cells: Escherichia coli M15
T2 sequence (P00956 whole entry): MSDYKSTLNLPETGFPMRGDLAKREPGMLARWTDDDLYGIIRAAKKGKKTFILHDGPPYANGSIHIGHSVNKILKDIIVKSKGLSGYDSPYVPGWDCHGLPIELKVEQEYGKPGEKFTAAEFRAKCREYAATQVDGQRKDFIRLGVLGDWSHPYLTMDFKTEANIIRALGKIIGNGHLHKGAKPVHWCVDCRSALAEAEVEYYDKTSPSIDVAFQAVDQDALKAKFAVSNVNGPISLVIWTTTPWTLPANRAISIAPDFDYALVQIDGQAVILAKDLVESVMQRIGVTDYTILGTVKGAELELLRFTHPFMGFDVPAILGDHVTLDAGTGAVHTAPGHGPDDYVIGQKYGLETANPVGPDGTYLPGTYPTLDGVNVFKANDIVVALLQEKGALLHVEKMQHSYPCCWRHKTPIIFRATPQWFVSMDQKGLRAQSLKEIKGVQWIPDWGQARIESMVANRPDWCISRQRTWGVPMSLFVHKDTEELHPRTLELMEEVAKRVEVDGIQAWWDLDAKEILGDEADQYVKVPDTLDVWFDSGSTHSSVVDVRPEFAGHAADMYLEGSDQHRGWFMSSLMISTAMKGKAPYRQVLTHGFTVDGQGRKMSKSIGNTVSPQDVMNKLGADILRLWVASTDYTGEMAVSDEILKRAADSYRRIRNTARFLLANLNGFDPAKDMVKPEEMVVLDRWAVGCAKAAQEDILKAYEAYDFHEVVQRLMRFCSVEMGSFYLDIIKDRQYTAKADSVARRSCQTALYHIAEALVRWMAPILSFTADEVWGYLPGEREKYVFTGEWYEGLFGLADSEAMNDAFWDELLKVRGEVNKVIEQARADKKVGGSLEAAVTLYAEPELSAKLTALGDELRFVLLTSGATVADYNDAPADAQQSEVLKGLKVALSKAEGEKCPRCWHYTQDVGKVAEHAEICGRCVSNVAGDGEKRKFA
Method: as §1, §2, §3, §4, §5, §6, §7

[3] = target: T3, EcoVRS (valyl-tRNA synthetase from Escherichia coli) (Escherichia coli, UniProt P07118); assay: aaRS aminoacylation assay (ATP consumption), EcoVRS; format: biochemical; conditions: i.a. = inactive at a concentration below 50 uM
T3 construct: made in house; host or cells: Escherichia coli M15
T3 sequence (P07118 whole entry): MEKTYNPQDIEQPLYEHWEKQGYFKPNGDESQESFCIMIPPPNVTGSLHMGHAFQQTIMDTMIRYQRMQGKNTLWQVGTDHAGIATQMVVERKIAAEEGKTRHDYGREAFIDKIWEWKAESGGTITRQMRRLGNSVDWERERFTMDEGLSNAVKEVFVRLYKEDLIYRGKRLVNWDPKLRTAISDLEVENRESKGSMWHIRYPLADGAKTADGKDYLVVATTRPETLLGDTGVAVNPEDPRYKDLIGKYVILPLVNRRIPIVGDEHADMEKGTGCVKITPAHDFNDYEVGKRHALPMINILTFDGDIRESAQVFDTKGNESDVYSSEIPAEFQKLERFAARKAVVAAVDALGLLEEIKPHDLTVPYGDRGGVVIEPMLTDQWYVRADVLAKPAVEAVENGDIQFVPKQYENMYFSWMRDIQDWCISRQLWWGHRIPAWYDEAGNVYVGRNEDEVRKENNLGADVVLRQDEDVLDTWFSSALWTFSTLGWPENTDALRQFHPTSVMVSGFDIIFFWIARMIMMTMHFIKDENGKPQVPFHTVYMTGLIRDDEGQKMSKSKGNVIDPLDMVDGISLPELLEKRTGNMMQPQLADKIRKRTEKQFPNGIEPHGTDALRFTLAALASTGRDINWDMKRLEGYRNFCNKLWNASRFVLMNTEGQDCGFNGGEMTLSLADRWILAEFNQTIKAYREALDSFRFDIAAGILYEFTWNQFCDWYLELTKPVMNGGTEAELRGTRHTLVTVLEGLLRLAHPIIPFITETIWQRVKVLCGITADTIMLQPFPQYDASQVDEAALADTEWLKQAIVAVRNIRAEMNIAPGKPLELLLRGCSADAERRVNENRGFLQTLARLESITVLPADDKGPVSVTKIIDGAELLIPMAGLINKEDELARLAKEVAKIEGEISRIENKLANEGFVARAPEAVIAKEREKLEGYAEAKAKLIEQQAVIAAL
Method: as §1, §2, §3, §4, §5, §6, §7

[4] = target: T4, SauLRS (leucyl-tRNA synthetase from Staphylococcus aureus) (Staphylococcus aureus, UniProt Q2FXH2); assay: aaRS aminoacylation assay (ATP consumption), SauLRS; format: biochemical; conditions: i.a. = inactive at a concentration below 50 uM
T4 construct: made in house; host or cells: Escherichia coli M15
T4 sequence (Q2FXH2 1-805): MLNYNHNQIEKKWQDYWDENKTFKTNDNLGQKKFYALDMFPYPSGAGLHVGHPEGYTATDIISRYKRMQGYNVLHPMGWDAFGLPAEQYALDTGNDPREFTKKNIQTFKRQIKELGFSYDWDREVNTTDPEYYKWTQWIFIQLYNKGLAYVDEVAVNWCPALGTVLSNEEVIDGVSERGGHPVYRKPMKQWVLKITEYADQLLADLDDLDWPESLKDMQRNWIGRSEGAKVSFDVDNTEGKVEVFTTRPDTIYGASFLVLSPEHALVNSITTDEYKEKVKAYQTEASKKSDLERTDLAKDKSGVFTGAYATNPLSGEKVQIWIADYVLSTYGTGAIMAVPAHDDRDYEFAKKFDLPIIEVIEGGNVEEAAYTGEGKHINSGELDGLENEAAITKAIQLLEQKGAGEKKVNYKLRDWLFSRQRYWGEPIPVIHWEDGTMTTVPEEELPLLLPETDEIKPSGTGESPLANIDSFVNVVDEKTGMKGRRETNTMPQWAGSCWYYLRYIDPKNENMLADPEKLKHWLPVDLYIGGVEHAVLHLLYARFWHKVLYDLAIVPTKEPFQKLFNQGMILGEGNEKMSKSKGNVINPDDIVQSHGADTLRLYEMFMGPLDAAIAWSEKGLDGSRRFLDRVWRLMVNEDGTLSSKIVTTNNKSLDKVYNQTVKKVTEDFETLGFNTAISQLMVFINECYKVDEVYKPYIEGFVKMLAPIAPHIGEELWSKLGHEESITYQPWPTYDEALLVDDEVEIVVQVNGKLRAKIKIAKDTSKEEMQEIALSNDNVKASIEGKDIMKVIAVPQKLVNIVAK
Method: as §1, §2, §3, §4, §5, §6, §7

[5] = target: T5, SauVRS (valyl-tRNA synthetase from Staphylococcus aureus) (Staphylococcus aureus, UniProt Q2FXR8); assay: aaRS aminoacylation assay (ATP consumption), SauVRS; format: biochemical; conditions: i.a. = inactive at a concentration below 50 uM
T5 construct: made in house; host or cells: Escherichia coli M15
T5 sequence (Q2FXR8 1-876): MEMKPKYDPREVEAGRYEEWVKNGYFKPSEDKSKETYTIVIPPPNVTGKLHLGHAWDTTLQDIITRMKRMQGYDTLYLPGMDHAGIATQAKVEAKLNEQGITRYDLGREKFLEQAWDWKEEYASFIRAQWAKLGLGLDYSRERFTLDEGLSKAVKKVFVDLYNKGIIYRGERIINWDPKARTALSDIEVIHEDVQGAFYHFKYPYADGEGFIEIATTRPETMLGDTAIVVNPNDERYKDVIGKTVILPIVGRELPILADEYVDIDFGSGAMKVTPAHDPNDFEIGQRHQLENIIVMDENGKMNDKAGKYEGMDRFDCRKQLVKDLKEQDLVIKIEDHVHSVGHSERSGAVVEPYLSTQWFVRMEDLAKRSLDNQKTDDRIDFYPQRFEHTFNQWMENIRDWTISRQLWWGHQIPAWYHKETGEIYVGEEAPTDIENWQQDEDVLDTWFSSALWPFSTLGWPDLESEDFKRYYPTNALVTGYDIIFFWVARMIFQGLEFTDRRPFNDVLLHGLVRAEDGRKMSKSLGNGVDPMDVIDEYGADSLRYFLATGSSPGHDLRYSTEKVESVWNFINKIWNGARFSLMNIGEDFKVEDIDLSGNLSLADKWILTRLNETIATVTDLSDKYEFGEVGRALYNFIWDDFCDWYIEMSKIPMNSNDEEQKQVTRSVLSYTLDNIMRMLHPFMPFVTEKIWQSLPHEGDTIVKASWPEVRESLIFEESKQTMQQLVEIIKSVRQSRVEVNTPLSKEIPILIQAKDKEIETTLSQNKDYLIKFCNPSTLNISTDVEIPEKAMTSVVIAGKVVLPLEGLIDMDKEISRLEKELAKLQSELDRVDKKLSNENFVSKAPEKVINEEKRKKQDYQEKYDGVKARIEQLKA
Method: as §1, §2, §3, §4, §5, §6, §7

T1 sequence (P07813 whole entry): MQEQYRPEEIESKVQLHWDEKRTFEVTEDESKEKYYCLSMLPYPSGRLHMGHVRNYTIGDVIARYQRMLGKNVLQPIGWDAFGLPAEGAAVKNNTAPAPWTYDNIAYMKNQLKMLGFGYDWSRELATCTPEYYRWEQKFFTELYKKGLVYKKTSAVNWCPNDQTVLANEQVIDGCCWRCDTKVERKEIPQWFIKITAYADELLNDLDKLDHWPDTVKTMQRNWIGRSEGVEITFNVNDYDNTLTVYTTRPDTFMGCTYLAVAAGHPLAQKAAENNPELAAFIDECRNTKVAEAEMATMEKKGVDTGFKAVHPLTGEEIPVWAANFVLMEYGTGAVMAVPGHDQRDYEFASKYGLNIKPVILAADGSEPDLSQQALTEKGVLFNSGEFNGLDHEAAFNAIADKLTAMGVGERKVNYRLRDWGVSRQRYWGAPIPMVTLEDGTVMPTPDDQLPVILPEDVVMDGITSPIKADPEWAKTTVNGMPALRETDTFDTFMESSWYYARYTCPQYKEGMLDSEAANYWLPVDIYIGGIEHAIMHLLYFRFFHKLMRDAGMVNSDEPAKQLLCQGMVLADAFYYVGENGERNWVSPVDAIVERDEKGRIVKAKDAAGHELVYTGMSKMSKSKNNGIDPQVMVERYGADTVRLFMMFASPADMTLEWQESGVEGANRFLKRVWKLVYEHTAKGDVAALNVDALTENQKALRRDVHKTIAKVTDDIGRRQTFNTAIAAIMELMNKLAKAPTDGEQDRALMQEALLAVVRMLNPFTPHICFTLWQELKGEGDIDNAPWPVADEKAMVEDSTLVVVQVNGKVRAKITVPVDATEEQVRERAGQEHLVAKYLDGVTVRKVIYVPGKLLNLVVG

Row | Compound | melting point | also measured
1 | CC(C)C[C@H](N)C(=O)NS(=O)(=O)c1cccc2cc(C(N)=O)ncc12 (as salt: salt) [Compound 5.24, 8-(N-(L-Leucyl)sulfamoyl)isoquinoline-3-carboxamide] | 222.9 °C | 
2 | COc1ccc(S(=O)(=O)NC(=O)[C@@H](N)CC(C)C)c2ccccc12 [Compound 5.18] | 253 to 255 °C | 
3 | CC(C)C[C@H](N)C(=O)NS(=O)(=O)c1ccccn1 [Compound 5.20] | 203 to 205 °C | 
4 | CC(C)C[C@H](N)C(=O)NS(=O)(=O)c1cccc2c1CNCC2 (as salt: trifluoroacetate) [Compound 5.26, (S)-2-amino-4-methyl-N-((1,2,3,4-tetrahydroisoquinolin-8-yl)sulfonyl) pentanamide trifluoroacetate] | 90 to 92 °C | 
5 | CC(C)C[C@H](N)C(=O)NS(=O)(=O)c1ccc(O)c2ccccc12 [Compound 5.23] | 250 to 252 °C | 
6 | CC(C)C[C@H](N)C(=O)NS(=O)(=O)c1cccc(-c2cc(Oc3ccccc3)nc(N)n2)c1 [Compound 5.52] |  | % at single point concentration (inhibition ratio), EcoLRS [1]: 104%@50 μM
7 | CC(C)C[C@H](N)C(=O)NS(=O)(=O)c1cccc(-c2cc(OC(C)C)nc(N)n2)c1 [Compound 5.51] |  | % at single point concentration (inhibition ratio), EcoLRS [1]: 102%@50 μM
8 | Cc1cc(-c2cccc(S(=O)(=O)NC(=O)[C@@H](N)C3CCCCC3)c2)nc(N)n1 [Compound 5.32] |  | IC50 [1]: 38 µM; IC50 EcoIRS [2]: i.a; IC50 EcoVRS [3]: i.a; IC50 SauLRS [4]: i.a; IC50 SauVRS [5]: i.a
9 | CC(C)C[C@H](N)C(=O)NS(=O)(=O)c1ccc(F)cc1 [Compound 5.8] | 235 to 236 °C | 
10 | CC(C)C[C@H](N)C(=O)NS(=O)(=O)c1cccc2c(N(C)C)cccc12 (as salt: hydrochloride) [Compound 5.16, (S)-2-amino-N-((5-(dimethylamino)naphthalen-1-yl)sulfonyl)-4-methylpentanamide hydrochloride] | 178 to 180 °C | 
11 | CC(C)C[C@H](N)C(=O)NS(=O)(=O)c1ccc(Br)c2ccncc12 (as salt: trifluoroacetate) [Compound 5.22] | 137 to 139 °C | 

Reference: patent publication US11072581B2, “N-acyl-arylsulfonamide derivatives as aminoacyl-tRNA synthetase inhibitors” (Oxford Drug Design Limited, priority 2015, dated 2021)
